# “And” between values parts separate entries of the source, which are not always exact repeats. Equal entries are not always repeated. Structures can show the parent of a compound that is named as a salt.
# Key:
# [1] = biological target: T1, RNase P holoenzyme from Thermotoga maritima (Thermotoga maritima, UniProt Q9X1H4); test: Verification of deconvoluted hits by fluorescence- and gel-based assays with Mh substrate; type: biochemical; details: 250 μM (fluorescence) and 500 μM (gel)
# T1 construct: made in house
# T1 sequence (Q9X1H4 1-117): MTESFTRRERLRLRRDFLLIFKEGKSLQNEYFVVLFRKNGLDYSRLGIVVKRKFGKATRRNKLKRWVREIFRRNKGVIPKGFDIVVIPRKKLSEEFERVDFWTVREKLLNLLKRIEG
# Experimental: For gel-based activity assays, reactions were prepared as described in the previous section (fluorescence activity assay), incubated for 1–15 min at 37–50°C, then loaded onto a denaturing 7 M urea–20% acrylamide gel in the case of the Mh substrate or 19% acrylamide (40% acrylamide/bisacrylamide 38.5:1.5) for the bipartite pre-tRNA substrate. The activity conditions for the gel reported in Figure 3A, to monitor the cleavage of the holoenzyme and P RNA, were under 100 mM AmOAc and 10 mM MgCl2. The gels (13 × 16 × 0.15 cm) were electrophoresed at 20 V/cm for 2–3 h. UV shadowing or ethidium bromide staining was used to visualize RNA cleavage. Detection of minihelix fluorescence was achieved without staining using a UV lamp with excitation at ∼254 nm.
# Screening was performed with the Spectrum Collection (MicroSource Discovery Systems, Inc), which comprises 2560 compounds, each dissolved in DMSO at 10 mM. For our initial screening, compounds from this collection were tested in cocktails; eight compounds were tested per well in 384-well format. The final concentration of each compound in the cocktail was 1.25 mM. For the activity assay, reactions were set up in a total volume of 20 μl (13.5 μl of activity buffer, 1.5 μl of fluorescent Mh at 3.6 μM, 3 μl of DMSO or cocktail). […] The control wells included for each experiment series were: (i) reaction with twice (3 μl) the fluorescent Mh amount to avoid a signal saturation for the rest of the wells, (ii) two reactions with 10% DMSO (no cocktail), (iii) Mh substrate only, with no ribozyme, (iv) reaction with 100 mM CaCl2, which it is used as a negative control as it competes with MgCl2 (EDTA was not used because metal ions are essential to maintaining the structure of P RNA ([41])). The reaction was initiated by adding 2 μl of holoenzyme at 333 nM and monitored as described above. Each round of experiments contained twenty different cocktails corresponding to one row of a 384-well plate (Supplementary Figures S6 and S24). […] At this stage, each compound from the inhibitory cocktails was tested at a final concentration of 1 mM (2 μl of the 10 mM stock). We performed a gel-based assay for the nine selected compounds to qualitatively verify the results obtained by the fluorescence assay (Supplementary Figure S9). After deconvolution, each of the final four potential positive compounds was purchased individually from a different provider (Sigma-Aldrich) and tested inhibition using the T. maritima Mh, pre-tRNA and bipartite pre-tRNA substrates (Figure 2 and Supplementary Figures S10–S12 and S14).
# Supplementary Figure 9. Consistent results between fluorescence- and gel-based assays. (A) Plots of fluorescent kinetic assays performed in standard conditions in the presence of the different hits at a concentration of 250 µM (four-fold lower concentration as compared to Supplementary Figure 8). (B) End-point assays of the RNase P holoenzyme from Thermotoga maritima in the presence of the non-fluorescent minihelix substrate and the different inhibitor hits at 500 µM, as assessed by 20% urea-PAGE.
# The holoenzyme at 0.5 µM was preincubated at 37° C for 30 minutes in the presence of the individual compounds, centrifuged for 15 minutes at 12000g and incubated with the Mh substrate at 18 µM at 37 °C for 15 minutes. At this stage, iodoquinol was the only compound whose behavior was not corroborated in both assays (panels A and B). […]
# experiments reported in this Figure. […] Alexidine […]
# [2] = biological target: T1, RNase P holoenzyme from Thermotoga maritima; test: Real-time fluorescence-based (FRET) RNase P activity assay with minihelix (Mh) substrate; type: biochemical; details: 100 mM MgCl2
# Experimental: The reconstitution of the RNase P holoenzyme was performed as described in ([40],[19]). This protocol produces a homogeneous and functional ribozyme that can be crystallized by mixing P RNA and P protein in a 1:1.1 molar ratio in 1× TH buffer (33 mM Tris–HCl, 66 mM HEPES, pH 7.4) and 400 mM ammonium acetate (AmOAc). The mixture was heated to 95°C for 2 min in a water bath, then chilled on ice for 2 min, after which MgCl2 was added to a final concentration of 100 mM. […] This higher concentration was used in all experiments described herein. The holoenzyme was further incubated at 50°C for 10 min and 37°C for 40 min. The final concentration of holoenzyme was 333 nM (35.6 μg/ml of P RNA and 4.7 μg/ml of P protein).
# The minihelix (Mh) substrate (Figure 1A) was adopted from a previously characterized RNase P substrate, pMini3bpUG ([32],[33]) and coupled to either Black Hole Quencher 1 (BHQ1) or Black Hole Quencher 2 (BHQ2) at the 5′-end and Alexa Fluor 488 at the 3′-end. This probe was purchased either from Sigma-Aldrich or Integrated DNA Technologies (IDT). A requested scale of […] yielded between 6.3 and 20 nmol (57.5 to 181 μg, enough for 1300–4000 reactions depending on the experimental substrate concentration). Before use, the minihelix was diluted from a 100 μM stock (dissolved in water) to 3.6 μM in activity buffer H (33 mM Tris–HCl, 66 mM HEPES, pH 7.4, 400 mM AmOAc and 100 mM MgCl2).
# Reactions were performed in a total volume of 20 μl. Pipetting was done by hand using multichannel pipettes. First, an 18 μl reaction mixture containing 16.5 μl of activity buffer (H for Mh or L supplemented with 10% PEG 200 for bipartite pre-tRNA) and 270 nM (Mh) or 135 nM (bipartite pre-tRNA) (1.5 or 0.7 μl of the 3.6 μM stock) of the fluorescent substrate probe was pre-incubated on ice for at least 5 m in a black polystyrene 384-well microtiter microplate with a flat transparent bottom (Corning ref 3540). The holoenzyme was then added at a final concentration of 33 nM (2 μl of a 333 nM stock) in 1× TH buffer and mixed. Kinetic activity was monitored in a Synergy MX Multimode Detector (BioTek) at 37°C with rapid agitation. At least 20 readings were taken per well every 15 s. The probe was excited at 485 nm, and its emission was monitored at 535 nm with an integration time of 1 s. From the plots of relative fluorescent units (RFU) versus time, linear regression was used to determine the slopes in the linear portion of the curves, using at least 12 data points to obtain initial velocities. Non-linear fitting to obtain the Michaelis–Menten parameters was performed using GraphPad Prism® 6.01 software.
# Supplementary Figure 3. FRET assays of RNase P with the fluorescent substrate are reproducible. (A) Representative plots of kinetic assays performed in a single run. The standard assay (SA), (+), was performed at 37° C in a total volume of 20 µL and contained RNase P holoenzyme at 33 nM, substrate minihelix (Mh) at 270 nM, 10% DMSO and activity buffer (AB).
# The negative control assay (-) contained 100 mM CaCl2 in place of MgCl2. Ten to twelve wells were monitored simultaneously in a typical assay. (B) Zoomed view of the linear region of the kinetic assays shown in panel A. Fluorescence readings were performed every 15-20 seconds.
# Linear regression calculations were done using the GraphPad Prism 7 software. (C) The coefficient Z’-factor (1) was used as an indicator of reproducibility and was calculated based on the relative fluorescence units (RFU) in the plateau phase (taken at 20 minutes). The Z’-factor has a […]
# presented in this work were either measured in triplicate or confirmed in subsequent assays. (D) […]
# assay is robust. The IC50 values reported in Figures 1C and 2 were calculated according to this kinetic parameter. There is a negative drift in fluorescence in the case of the negative control.
# However, it should be noted that the mean value of it (-279) is much smaller than the signal of the […]
# positive control (3397). […]
# [3] = biological target: T2, P protein (Thermotoga maritima, UniProt Q9X1H4); test: Binding hindrance of the 5′ RNA leader to the P protein (BLI); set-up: species or system T. maritima; details: compound 100 μM, 5′ RNA leader 5 μM
# T2 construct: GST (cleaved yes); made in house; host or cells: E. coli BL21(DE3)pLysS
# T2 sequence (Q9X1H4 1-117): T1 sequence (Q9X1H4 1-117)
# Experimental: A 5′ RNA leader sequence with 10-bases 5′-GGAAAAAGAU-3′ was purchased from IDT and used at a concentration of 5 μM. This sequence is the same used to obtain the crystal structure of the RNase P holoenzyme ([19]). The His-tagged P protein was immobilized on Ni-NTA biosensors at 0.05 mg/ml (3.4 μM). […] The steps performed on the assay and their periods were: P protein immobilization (400 s), wash (100 s), baseline […] (1000 rpm), compound association (800 s), compound dissociation (200 s) (500 rpm), baseline (100 s), 5′ leader association (200 s), 5′ leader dissociation (200 s) (1000 rpm). The assay was performed at 30°C. The compounds were used at 100 μM throughout. All assay steps were performed in 20 mM HEPES pH 7.4, 100 mM ammonium acetate, 10 mM MgCl2, 5% DMSO.
# 5 ′ RNA leader. (A) Experimental design of 5′ RNA leader binding hindrance experiments. Figures B-F are based on the analysis region depicted in panel A, where association and dissociation of the 5′ RNA leader to the P protein (TmP) is measured over time. P protein at 3.5 µM was immobilized on Ni-NTA biosensors for 300 s, while compounds were assayed at 100 µM and the […]
# binding, in contrast with hematein (E) and purpurin (F).
# (1 picture or pasted object on this page, not shown here)
# [4] = tested on: 3'-biotinylated minihelix (Mh; pMini3bpUG) (RNA, hairpin) GAUCUGAAUGCGGAAACGCGCCAC; test: biolayer interferometry; details: Mg2+ 10 mM, NH4+ 100 mM (ammonium acetate); 20 mM HEPES pH 7.4, DMSO, 30°C; compound 15.6-500 µM
# [5] = biological target: minihelix (Mh); test: Biolayer interferometry binding to biotinylated minihelix substrate; details: BLI
# Experimental: 3′-Biotinylated minihelix was purchased from Integrated DNA Technologies (IDT) (24-mer RNA sequence, 5′-[…]-3′-Biotin). The biotinylated minihelix was immobilized on Super Streptavidin (SSA) biosensors at a concentration of 10 μM. […] For the titration experiments, 10 μM of 3′-biotinylated minihelix was immobilized for 300 s on Super Streptavidin (SSA) biosensors, followed by a wash step of 100 s and association and dissociation steps of 200 s in the presence of 6 different concentrations of compound ranging from 500 to 15.6 μM. SSA biosensors with no minihelix were used to measure non-specific binding of compounds. All other parameters (buffer, instrument control, analysis) are as described above.
# Supplementary Figure 16. Binding assays monitor the interaction of compounds with the minihelix (Mh). Gentian violet and methylene blue bind in a dose-dependent relationship to the artificial minihelix substrate. […]
# interaction between the minihelix and (A) gentian violet (KD=8 µM ) and (B) methylene blue A 3′-biotinylated substrate minihelix at 10 µ M was immobilized on super streptavidin (SSA) biosensors for 300 s.
# Supplementary Figure 17. pre-tRNA displaces bound purpurin in a dose-response […]
# indicating a true competition between purpurin and pre-tRNA binding sites. […]
compound,measurement,setting,value
N=C1C=CC(=C(c2ccc(N)cc2)c2ccc(N)cc2)C=C1 [Pararoseaniline],Inhibition of RNase P in fluorescence and gel verification,[1],did not inhibit RNase P
CCCCC(CC)CNC(=N)NC(=N)NCCCCCCNC(=N)NC(=N)NCC(CC)CCCC (stereo not drawn) [alexidine hydrochloride],Inhibition of RNase P in fluorescence and gel verification,[1],seems to precipitate the holoenzyme
Cc1cc(O)c2c(c1)C(=O)c1cc(O)cc(O)c1C2=O [emodin],Inhibition of RNase P in fluorescence and gel verification,[1],did not inhibit RNase P
"Oc1c(I)cc(I)c2cccnc12 [iodoquinol, reference compound]",Inhibition of RNase P in fluorescence and gel verification,[1],false positive
"NC[C@H]1O[C@H](O[C@H]2[C@H](O)[C@@H](O[C@H]3O[C@H](CO)[C@@H](O)[C@H](N)[C@H]3O)[C@H](N)C[C@@H]2N)[C@H](N)[C@@H](O)[C@@H]1O [kanamycin B, reference compound]",Inhibition of RNase P (Mh fluorescence assay),[2],did not detect inhibition
"CN(C)c1ccc2nc3ccc(=[N+](C)C)cc-3sc2c1 [methylene blue, reference compound]",IC50,"[2]; fluorescent Mh substrate 270 nM, holoenzyme 33 nM, 10% DMSO, 37°C, 400 mM AmOAc",110 µM and 109 µM
same,Hindrance of 5′ RNA leader binding to the P protein,[3],did not interfere with RNA leader
same,KD,[4],35 µM
same,Kd,[5]; 3′-biotinylated minihelix 10 μM on SSA biosensors,35 µM
same,Binding to the minihelix substrate,[5]; initial screening at 1 mM and titration,binding signal
"NC[C@@H]1O[C@H](O[C@H]2[C@@H](O)[C@H](O[C@@H]3[C@@H](O)[C@H](N)C[C@H](N)[C@H]3O[C@H]3O[C@H](CN)[C@@H](O)[C@H](O)[C@H]3N)O[C@@H]2CO)[C@H](N)[C@@H](O)[C@@H]1O [neomycin B, reference compound]",Inhibition of RNase P (Mh fluorescence assay),[2],did not detect inhibition
"O=C(N/N=C/c1ccc([N+](=O)[O-])o1)c1cc([N+](=O)[O-])cc([N+](=O)[O-])c1O [nifursol, reference compound]",Inhibition of RNase P in fluorescence and gel verification,[1],weak inhibitor
